Several values for one entry are separate records, joined by “and”; a condition that tells them apart may be missing. Identical values can stand only once. Positions of bridges follow the written chain, without caps; N, C: chain ends. No end group written: not given here.
Columns and labels:
[1] = tested on: human pancreatic adenocarcinoma cell line Panc-1; test: Proliferation test with tetrazolium salts, Panc-1 in medium with serum, 10 days; format: cell-based
Method: It was performed the same kind of test which had been carried out for the Capan-1 cell line but with Panc-1, another human pancreatic adenocarcinoma cell line. We are referring to a human pancreatic adenocarcinoma ATCC nr. CRL 1469, established by Lieber, M. et al. (1975) In. J. Cancer, 15: 741-747. Of ductal origin, it is not highly differentiated.
As for the Capan-1 cell line, two types of experiments were carried out with and without bovine fetal serum. The protocol followed for the test, growing in RPMI plus bovine fetal serum, was the same as that used with Capan-1 cell line but with small variations, given the difference in the duplication times between the two lines. The tests were carried out with the native PCI (wtPCI) and with the mutant PCI (PCIdelYVG). The protocol is detailed as follows:
1. In a culture plate with 96 wells, 2,000 cells were seed in 30 wells for the tests with wtPCI and in 36 for the tests with PCIdelYVG. From these 30 or 36:
In 6 wells (control), 200 μL of full medium (RPMI+10%FBS) without wtPCI or PCIdelYVG/mL were added. […]
2. The cells were kept in an incubator at 37° C., 87% of relative humidity and 10% of CO2. The old medium was sucked out with a Pasteur pipette. Medium free of wtPCI or PCIdelYVG was added to the control wells and to the others a medium was added with identical concentration of wtPCI or PCIdelYVG.
3. After 10 days, the cell growth was evaluated per well, according to the method detailed in the protocol of Section 4.B.2.a.

trypsin = test: Gene expression analysis by Northern transfer, trypsin probe; format: cell-based, human; conditions: for beta counts, Trypsin probe: 12 days, Capan-1 (control 511)
Method: To verify whether the PCI plays any role in signal transduction, studies of gene expression were carried out by Northern transfer. The probes were: β2-microglobulin, p53 and trypsin. The β2-microglobulin is a constitutive gene that is used as a sample loading control in the gel. p53 is a transcription factor which, among other functions, controls the state of the genomic DNA and the cell cycle (Bates, S. & Vousden, K. H. (1996) Curr. Opin. Genet. Develop., 6: 12-19). If the DNA is damaged, p53 induces its repair and, if it is excessively damaged, it provokes programmed cellular death (apoptosis). Trypsin is a marker of pancreatic cells of the acinar type. The trypsin is not expressed by all the tumoral cells and it is believed that it is expressed by the cells with metastatic power and/or invasive power (Fernández, E. et al., (1994) Cancer, 73: 2285-2295). The probes employed are described as follows:
In the first place, 3×10^6 cells of the human pancreatic adenocarcinoma cell line Capan-1 were placed in each one of the 12 flasks of 150 cm^2. […] They were maintained in culture for 12 days period, changing their medium every 4 days, adding fresh PCI. Once the treatment was completed, the cells were trypsinized and the sediment of the cells was kept at −80° C. Afterwards, the extraction of the RNA was carried out.
The quantifying of the hybridized filters with the respective probes was done using a Betascope 601 blot Analyzer counter (Betagen, USA). The counting time was 45 min for the hybridized filter with the probe p53 and β2-microglobuline and 2 h for the trypsin probe.
Assuming that the counts of the β2-Microglobuline are an indication of the total amount of poly(A^+) RNA, the data may be standardized as a percentage of counts of the band compared to the β2-microglobuline counts of the same cells, giving a value which depends on the abundance of the specific mRNA in relation to the total of mRNA.

EGF receptor = EGF receptor (Homo sapiens, UniProt P00533); test: Kinase activity (phosphorilation) of the EGF receptor, Capan-1 cells; format: cell-based; set-up: endogenous in cells; host or cells: Capan-1 (human pancreatic adenocarcinoma)
Method: The material and protocol used have been those described by Donato, N. J. et al. (1989) J. Cell. Biochem., 41: 139-157.
1.c. Wash the cells twice more with tempered PBS and add new serum-free medium. Immediately after, add PCI to the concentration which is going to be studied in the cultures to be treated and incubate for 10 min at 37° C.
2.a. […] Incubate for 1 h in ice.
3.a. Prepare the reaction buffer. Each sample requires 50μL.
3.k. Dry the gel (for at least 3 h) and autoradiograph it for 10 min for the A431 cell line and 2-4 h for the Capan-1 cell line. Count the radiactivity of the filter using a beta counter.

PCI: potato carboxypeptidase inhibitor, isoform IIa, obtained by recombinant DNA techniques in E. coli (SEQ ID NO.2) (EQHADPICNKPCKTHDDCSGAWFCQACWNSARTCGPYVG; disulfide 12-27, 18-34, 8-24)
Growth (Percentage in relation to the average of the controls) ([1]; 0.1 mg/mL wtPCI, RPMI+10%FBS): 90.85%
Growth (Percentage in relation to the average of the controls) ([1]; 1 mg/mL wtPCI): 84.55%
Growth (Percentage in relation to the average of the controls) ([1]; 10 mg/mL wtPCI): 82.22%
Growth (Percentage in relation to the average of the controls) ([1]; 50 mg/mL wtPCI): 71.14%
level of inhibition ([1]; concentration of 0.1 μg/mL): 9.15%
level of inhibition ([1]; concentration of 50 μg/mL): 28.86%
lower transcription of trypsin, inverse quotient (control/treatment) (trypsin; 1 mg/mL PCI): 2.9 times
Trypsin/b2 (counts of one band in relation to those of β2-microglobuline) (trypsin; 1 mg/mL PCI (control 0.5351)): 0.1814
beta counts, Trypsin probe (trypsin; 1 mg/mL PCI): 396
lower transcription of trypsin, inverse quotient (control/treatment) (trypsin; 10 mg/mL PCI): 7.8 times
Trypsin/b2 (counts of one band in relation to those of β2-microglobuline) (trypsin; 10 mg/mL PCI (control 0.5351)): 0.0687
beta counts, Trypsin probe (trypsin; 10 mg/mL PCI): 432
Kinase activity (%) (EGF receptor; 5 ng/mL EGF + 1 mg/mL PCI): 180%
Kinase activity (%) (EGF receptor; 5 ng/mL EGF + 10 mg/mL PCI): 170%
Kinase activity (%) (EGF receptor; 5 ng/mL EGF + 50 mg/mL PCI): 120%
inhibition of the kinase activity induced by EGF (EGF receptor; PCI concentration of 50 μg/mL): 50%
Kinase activity (%) (EGF receptor; basal, incubation with PCI 50 mg/mL, 10 min, 100% = absence of PCI): 70% and 88% and 90%

— patent publication US6379959B1, “Metalocarboxypeptidase inhibitors and derived molecules used as antitumor agents” (Universitat Autonoma de Barcelona, priority 1996, dated 2002)
